# Measurements taken from PMC6176729 (Journal of medicinal chemistry, 2018).
# Experiments:
# Assay type in all cases: in vitro ADME
# [1] = Microsomal stability assay, mouse liver microsomes
# [2] = Microsomal stability assay, human liver microsomes; conditions: for CLINT human: human liver microsomes 0.5 mg/mL, 1 μM compound; for CLHEP human: predicted hepatic clearance, human microsomes
# [3] = Microsomal stability assay, rat liver microsomes; conditions: for CLHEP rat: predicted hepatic clearance, rat microsomes; for CLINT rat: rat liver microsomes 0.5 mg/mL, 1 μM compound
# [4] = mouse liver microsomes 0.5 mg/mL, 1 μM compound
# [5] = predicted hepatic clearance, mouse microsomes
# [6] = male, CD-1, mouse, 1 μM, pH 7.4
SMILES,"CLINT mouse [1, 4] [mL/min/kg body weight]","CLHEP mouse [1, 5] [mL/min/kg body weight]",CLINT human [2] [mL/min/kg body weight],CLHEP human [2] [mL/min/kg body weight],CLHEP rat [3] [mL/min/kg body weight],CLINT rat [3] [mL/min/kg body weight],"CLHEP mouse [1, 6] [mL/min/kg body weight]","CLINT mouse ([1]; mouse, microsomes) [mL/min/kg body weight]"
"CS(=O)(=O)c1ccc(-c2nnc(-c3ccc(C(=O)N[C@@H](Cn4ccnc4)c4ccc(Cl)cc4Cl)cc3)o2)cc1Cl [Compound 14, (R)-4-(5-(3-Chloro-4-(methylsulfonyl)phenyl)-1,3,4-oxadiazol-2-yl)-N-(1-(2,4-dichlorophenyl)-2-(1H-imidazol-1-yl)ethyl)benzamide]",–,–,9.31,6.45,42,104,34.5,56
"O=C(N[C@@H](Cn1ccnc1)c1ccc(Cl)cc1Cl)c1ccc(-c2nnc(-c3cc(F)cc(-c4ncncc4F)c3)o2)cc1 [Compound 15, (R)-N-(1-(2,4-Dichlorophenyl)-2-(1H-imidazol-1-yl)ethyl)-4-(5-(3-fluoro-5-(5-fluoropyrimidin-4-yl)phenyl)-1,3,4-oxadiazol-2-yl)-benzamide]",104,48.3,14.9,8.37,19.5,27.0,–,–
"O=C(N[C@@H](Cn1ccnc1)c1ccc(Cl)cc1Cl)c1ccc(-c2nnc(-c3cc(-c4ccccn4)ccc3F)o2)cc1 [Compound 13, (R)-N-(l-(2,4-Dichlorophenyl)-2-(TH-imidazol-l-yl)ethyl)-4-(5-(2-fluoro-5-(pyridin-2-yl)phenyl)-1,3,4-oxadiazol-2-yl)benzamide]",238,65,10.2,6.85,29.0,49.4,–,–
"O=C(N[C@@H](Cn1ccnc1)c1ccc(Cl)cc1Cl)c1ccc(-c2nnc(-c3cc(F)cc(-c4ccccn4)c3)o2)cc1 [Compound 11, (R)-N-(1-(2,4-Dichlorophenyl)-2-(1H-imidazol-1-yl)ethyl)-4-(5-(3-fluoro-5-(pyridin-2-yl)phenyl)-1,3,4-oxadiazol-2-yl)benzamide]",55.0,34,96.6,17.3,24.0,36.0,–,–
"O=C(N[C@@H](Cn1ccnc1)c1ccc(Cl)cc1Cl)c1ccc(-c2nnc(-c3cccc(-c4ccccn4)c3)o2)cc1 [Compound 9, (R)-N-(1-(2,4-Dichlorophenyl)-2-(1H-imidazol-1-yl)ethyl)-4-(5-(3-(pyridin-2-yl)phenyl)-1,3,4-oxadiazol-2-yl)benzamide]",–,–,13.1,8.06,35,68,56,152
"O=C(N[C@@H](Cn1ccnc1)c1ccc(Cl)cc1Cl)c1ccc(-c2nnc(-c3ccc(-c4ccccn4)cc3)o2)cc1 [Compound 10, (R)-N-(1-(2,4-Dichlorophenyl)-2-(1H-imidazol-1-yl)ethyl)-4-(5-(4-(pyridin-2-yl)phenyl)-1,3,4-oxadiazol-2-yl)benzamide]",95,46,10.8,7.15,40,94,–,–

# The remaining lines, values ahead:
"CLINT mouse [1, 4] [mL/min/kg body weight]","CLHEP mouse [1, 5] [mL/min/kg body weight]",CLINT human [2] [mL/min/kg body weight],CLHEP human [2] [mL/min/kg body weight],CLHEP rat [3] [mL/min/kg body weight],CLINT rat [3] [mL/min/kg body weight],"CLHEP mouse [1, 6] [mL/min/kg body weight]","CLINT mouse ([1]; mouse, microsomes) [mL/min/kg body weight]",SMILES
55,34,7.53,5.54,21,31,–,–,"O=C(N[C@@H](Cn1ccnc1)c1ccc(Cl)cc1Cl)c1ccc(-c2nnc(-c3ccc(F)c(F)c3)o2)cc1 [Compound 1, (R)-N-(1-(2,4-Dichlorophenyl)-2-(1H-imidazol-1-yl)ethyl)-4-(5-(3,4-difluorophenyl)-1,3,4-oxadiazol-2-yl)benzamide]"
36.5,26.0,15,8.75,29.7,51.6,–,–,"O=C(N[C@@H](Cn1ccnc1)c1ccc(Cl)cc1Cl)c1ccc(-c2nnc(-c3ccc(-c4ccccn4)cc3F)o2)cc1 [Compound 12, (R)-N-(1-(2/4-Dichlorophenyl)-2-(1H-imidazol-1-yl)ethyl)-4-(5-(4-(3-fluoropyridin-2-yl)phenyl)-1,3,4-oxadiazol-2-yl)benzamide]"
126,55,9.47,6.53,19,27,–,–,"O=C(N[C@@H](Cn1ccnc1)c1ccc(Cl)cc1Cl)c1ccc(-c2nnc(-c3cccc(Br)c3)o2)cc1 [Compound 6, (R)-4-(5-(3-Bromophenyl)-1,3,4-oxadiazol-2-yl)-N-(1-(2,4-di-chlorophenyl)-2-(1H-imidazol-1-yl)ethyl)benzamide]"
88,44,16.5,9.24,34,64,–,–,"O=C(N[C@@H](Cn1ccnc1)c1ccc(Cl)cc1Cl)c1ccc(-c2nnc(-c3ccc(OCC(F)(F)F)cc3F)o2)cc1 [Compound 3, (R)-N-(1-(2,4-Dichlorophenyl)-2-(1H-imidazol-1-yl)ethyl)-4-(5-(2-fluoro-4-(2,2,2-trifluoroethoxy)phenyl)-1,3,4-oxadiazol-2-yl)-benzamide]"
87,44,8.31,5.95,19.2,26.4,–,–,"O=C(N[C@@H](Cn1ccnc1)c1ccc(Cl)cc1Cl)c1ccc(-c2nnc(-c3ccccc3)o2)cc1 [VNI, (R)-N-(1-(2,4-dichlorophenyl)-2-(1H−imidazol-1-yl)ethyl)-4-(5-phenyl-1,3,4-oxadiazol-2-yl)-benzamide, reference compound]"
–,–,11.3,7.33,29,50.4,43.6,84.7,"O=C(N[C@@H](Cn1ccnc1)c1ccc(Cl)cc1Cl)c1ccc(-c2nnc(-c3cc(F)cc(OCC(F)(F)F)c3)o2)cc1 [Compound 4, (R)-N-(1-(2,4-Dichlorophenyl)-2-(1H-imidazol-1-yl)ethyl)-4-(5-(3-fluoro-5-(2,2,2-trifluoroethoxy)phenyl)-1,3,4-oxadiazol-2-yl)-benzamide]"
–,–,11.4,7.39,35,70,49,107,"O=C(N[C@@H](Cn1ccnc1)c1ccc(Cl)cc1Cl)c1ccc(-c2nnc(-c3ccc(Cl)c(Cl)c3)o2)cc1 [Compound 5, (R)-4-(5-(3,4-Dichlorophenyl)-1,3,4-oxadiazol-2-yl)-N-(1-(2,4-di-chlorophenyl)-2-(1H-imidazol-1-yl)ethyl)benzamide]"
60,36,6.06,4.07,24,36,–,–,"O=C(N[C@@H](Cn1ccnc1)c1ccc(Cl)cc1Cl)c1ccc(-c2nnc(-c3ccc(C(F)(F)F)c(F)c3)o2)cc1 [Compound 2, (R)-N-(1-(2,4-Dichlorophenyl)-2-(1H-imidazol-1-yl)ethyl)-4-(5-(3-fluoro-4-(trifluoromethyl)phenyl)-1,3,4-oxadiazol-2-yl)benzamide]"
